Read-outs that look alike come from different tables or passages of the source.
How the values were obtained:
[1] = test system: Amaranthus rudis (AMATA), tall water hemp; assay: Postemergence herbicide evaluation, growth of Amaranthus rudis (AMATA); type: in vivo; settings: Amaranthus tuberculatus, post-emergence, read-out: Ave. AMATA, percent reduction in plant size relative to the untreated control; for pest or weed control at 280 g/ha: 280 g ae/ha; for pest or weed control at 560 g/ha: 560 g ae/ha
[2] = test system: Ambrosia artemisiifolia (AMBEL), common ragweed; assay: Postemergence herbicide evaluation, growth of Ambrosia artemisiifolia (AMBEL); type: in vivo; settings: Ambrosia artemisiifolia, post-emergence, read-out: AVE. AMBEL, percent reduction in plant size relative to the untreated control; for pest or weed control at 280 g/ha: 280 g ae/ha; for pest or weed control at 560 g/ha: 560 g ae/ha
[3] = test system: Abutilon theophrasti (ABUTH), velvetleaf; assay: Postemergence herbicide evaluation, growth of Abutilon theophrasti (ABUTH); type: in vivo; settings: Abutilon theophrasti, post-emergence, read-out: AVE. ABUTH, percent reduction in plant size relative to the untreated control; for pest or weed control at 280 g/ha: 280 g ae/ha; for pest or weed control at 560 g/ha: 560 g ae/ha
[4] = test system: Chenopodium album (CHEAL), common lambsquarters; assay: Postemergence herbicide evaluation, growth of Chenopodium album (CHEAL); type: in vivo; settings: Chenopodium album, post-emergence, read-out: Ave. CHEAL, percent reduction in plant size relative to the untreated control; for pest or weed control at 280 g/ha: 280 g ae/ha; for pest or weed control at 560 g/ha: 560 g ae/ha
[5] = test system: glyphosate resistant Conyza canadensis (L.) (ERICA), horseweed; assay: Postemergence herbicide evaluation, growth of Conyza canadensis (ERICA); type: in vivo; settings: Erigeron canadensis, post-emergence, read-out: Ave. ERICA, percent reduction in plant size relative to the untreated control; for pest or weed control at 280 g/ha: 280 g ae/ha; for pest or weed control at 560 g/ha: 560 g ae/ha
[6] = Volatility of compounds measured by thermogravimetric analysis (TGA); type: physicochemical
[7] = test system: weeds ABUTH, AMATA, AMBEL, CHEAL, ERICA; assay: Postemergence herbicide evaluation, overall average % weed control (ABUTH, AMATA, AMBEL, CHEAL, ERICA); type: in vivo; settings: post-emergence, read-out: Overall Ave % Weed Control; for pest or weed control at 280 g/ha: 280 g ae/ha; for pest or weed control at 560 g/ha: 560 g ae/ha

Structure (SMILES) | pest or weed control at 280 g/ha ([1]; 168 h, 7 DAA) [%] | pest or weed control at 560 g/ha ([1]; 168 h, 7 DAA) [%] | pest or weed control at 280 g/ha ([1]; 336 h, 14 DAA) [%] | pest or weed control at 560 g/ha ([1]; 336 h, 14 DAA) [%] | pest or weed control at 280 g/ha ([1]; 504 h, 21 DAA) [%] | pest or weed control at 560 g/ha ([1]; 504 h, 21 DAA) [%] | pest or weed control at 280 g/ha ([2]; 168 h, 7 DAA) [%] | pest or weed control at 560 g/ha ([2]; 168 h, 7 DAA) [%] | pest or weed control at 280 g/ha ([2]; 336 h, 14 DAA) [%] | pest or weed control at 560 g/ha ([2]; 336 h, 14 DAA) [%] | pest or weed control at 280 g/ha ([2]; 504 h, 21 DAA) [%] | pest or weed control at 560 g/ha ([2]; 504 h, 21 DAA) [%] | pest or weed control at 280 g/ha ([3]; 168 h, 7 DAA) [%] | pest or weed control at 560 g/ha ([3]; 168 h, 7 DAA) [%] | pest or weed control at 280 g/ha ([3]; 336 h, 14 DAA) [%] | pest or weed control at 560 g/ha ([3]; 336 h, 14 DAA) [%] | pest or weed control at 280 g/ha ([3]; 504 h, 21 DAA) [%] | pest or weed control at 560 g/ha ([3]; 504 h, 21 DAA) [%] | pest or weed control at 280 g/ha ([4]; 168 h, 7 DAA) [%] | pest or weed control at 560 g/ha ([4]; 168 h, 7 DAA) [%] | other results
C/C(=N\OC(=O)COc1ccc(Cl)cc1Cl)c1cccnc1 [Compound A26] | 65 | 94 | 85 | 90 | 67.5 | 92.5 | 80 | 77.5 | 72.5 | 90 | 100 | 100 | 62.5 | 67.5 | 72.5 | 92.5 | 96 | 100 | 72.5 | 80 | pest or weed control at 280 g/ha ([4]; 336 h, 14 DAA): 97.5%; pest or weed control at 560 g/ha ([4]; 336 h, 14 DAA): 95%; pest or weed control at 280 g/ha ([4]; 504 h, 21 DAA): 87.5%; pest or weed control at 560 g/ha ([4]; 504 h, 21 DAA): 95%; pest or weed control at 280 g/ha ([5]; 168 h, 7 DAA): 80%; pest or weed control at 560 g/ha ([5]; 168 h, 7 DAA): 82.5%; pest or weed control at 280 g/ha ([5]; 336 h, 14 DAA): 99%; pest or weed control at 560 g/ha ([5]; 336 h, 14 DAA): 99.5%; pest or weed control at 280 g/ha ([5]; 504 h, 21 DAA): 100%; pest or weed control at 560 g/ha ([5]; 504 h, 21 DAA): 100%; TGA Data (rate of weight loss, volatility) ([6]; value marked *: decomposition of the material was observed): 1.599* μg/min; pest or weed control at 280 g/ha ([7]; 168 h, 7 DAA): 72%; pest or weed control at 560 g/ha ([7]; 168 h, 7 DAA): 80.3%; pest or weed control at 280 g/ha ([7]; 336 h, 14 DAA): 85.3%; pest or weed control at 560 g/ha ([7]; 336 h, 14 DAA): 93.4%; pest or weed control at 280 g/ha ([7]; 504 h, 21 DAA): 90.2%; pest or weed control at 560 g/ha ([7]; 504 h, 21 DAA): 97.5%
N/C(=N\OC(=O)COc1ccc(Cl)cc1Cl)c1cccnc1 [Compound A4, N′-(2-(2,4-Dichlorophenoxy)acetoxy)nicotinimidamide] | 75 | 60 | 75 | 73 | 70 | 75 | 60 | 68 | 78 | 88 | 88 | 85 | 35 | 50 | 40 | 58 | 38 | 53 | 60 | 68 | pest or weed control at 280 g/ha ([4]; 336 h, 14 DAA): 63%; pest or weed control at 560 g/ha ([4]; 336 h, 14 DAA): 75%; pest or weed control at 280 g/ha ([4]; 504 h, 21 DAA): 63%; pest or weed control at 560 g/ha ([4]; 504 h, 21 DAA): 83%; pest or weed control at 280 g/ha ([5]; 168 h, 7 DAA): 60%; pest or weed control at 560 g/ha ([5]; 168 h, 7 DAA): 65%; pest or weed control at 280 g/ha ([5]; 336 h, 14 DAA): 83%; pest or weed control at 560 g/ha ([5]; 336 h, 14 DAA): 85%; pest or weed control at 280 g/ha ([5]; 504 h, 21 DAA): 88%; pest or weed control at 560 g/ha ([5]; 504 h, 21 DAA): 88%; TGA Data (rate of weight loss, volatility) [6]: 1 µg/min; pest or weed control at 280 g/ha ([7]; 168 h, 7 DAA): 58%; pest or weed control at 560 g/ha ([7]; 168 h, 7 DAA): 62%; pest or weed control at 280 g/ha ([7]; 336 h, 14 DAA): 68%; pest or weed control at 560 g/ha ([7]; 336 h, 14 DAA): 76%; pest or weed control at 280 g/ha ([7]; 504 h, 21 DAA): 69%; pest or weed control at 560 g/ha ([7]; 504 h, 21 DAA): 77%
CC(C)ONC(=O)COc1ccc(Cl)cc1Cl [Compound D23] | 82.5 | 82.5 | 90 | 90 | 72.5 | 87.5 | 77.5 | 75 | 80 | 85 | 100 | 100 | 70 | 90 | 93.5 | 99 | 99 | 100 | 80 | 85 | pest or weed control at 280 g/ha ([4]; 336 h, 14 DAA): 96.5%; pest or weed control at 560 g/ha ([4]; 336 h, 14 DAA): 99%; pest or weed control at 280 g/ha ([4]; 504 h, 21 DAA): 94%; pest or weed control at 560 g/ha ([4]; 504 h, 21 DAA): 95%; pest or weed control at 280 g/ha ([5]; 168 h, 7 DAA): 80%; pest or weed control at 560 g/ha ([5]; 168 h, 7 DAA): 77.5%; pest or weed control at 280 g/ha ([5]; 336 h, 14 DAA): 100%; pest or weed control at 560 g/ha ([5]; 336 h, 14 DAA): 97.5%; pest or weed control at 280 g/ha ([5]; 504 h, 21 DAA): 99%; pest or weed control at 560 g/ha ([5]; 504 h, 21 DAA): 100%; TGA Data (rate of weight loss, volatility) [6]: 0.6973 µg/min; pest or weed control at 280 g/ha ([7]; 168 h, 7 DAA): 78%; pest or weed control at 560 g/ha ([7]; 168 h, 7 DAA): 82%; pest or weed control at 280 g/ha ([7]; 336 h, 14 DAA): 92%; pest or weed control at 560 g/ha ([7]; 336 h, 14 DAA): 94.1%; pest or weed control at 280 g/ha ([7]; 504 h, 21 DAA): 92.9%; pest or weed control at 560 g/ha ([7]; 504 h, 21 DAA): 96.5%

Reference: US20260042731A1, “(2,4-DICHLOROPHENOXY)ACETIC ACID ANALOGS” (CORTEVA AGRISCIENCE LLC, priority 2022, published 2026)
